Measured values published in US9051318B2, “Pyrido [2, 3-B] pyrazine compounds and their therapeutical uses such as for inhibiting ATP consuming proteins and treating diseases associated therewith” (Merck Patent GmbH, priority 2011, dated 2015).

Tests used:
GST-ALK5 = target: T1, GST-ALK5 (Homo sapiens, UniProt P36897); assay: In-vitro (enzyme) kinase flashplate assay, TGF-beta receptor kinase (Example 9); assay type: biochemical; details: GST-ALK5, GST-SMAD2 substrate, 3 mM ATP, 30° C. 45 min; read-out: TβR activity (Example 9)
T1 sequence (P36897 34-503): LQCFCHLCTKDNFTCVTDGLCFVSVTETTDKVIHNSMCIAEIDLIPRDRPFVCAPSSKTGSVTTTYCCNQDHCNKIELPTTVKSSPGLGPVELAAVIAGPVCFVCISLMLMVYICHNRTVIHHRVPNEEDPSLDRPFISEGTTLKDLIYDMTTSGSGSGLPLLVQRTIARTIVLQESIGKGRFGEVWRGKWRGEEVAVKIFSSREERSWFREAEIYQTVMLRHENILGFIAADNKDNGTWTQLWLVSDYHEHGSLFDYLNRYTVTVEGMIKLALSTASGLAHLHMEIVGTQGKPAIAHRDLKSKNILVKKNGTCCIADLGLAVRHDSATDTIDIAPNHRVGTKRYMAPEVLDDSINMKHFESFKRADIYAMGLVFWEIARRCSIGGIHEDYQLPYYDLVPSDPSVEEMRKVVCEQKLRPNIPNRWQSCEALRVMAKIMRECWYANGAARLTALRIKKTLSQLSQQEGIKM
Experimental: The kinase assay was carried out as 384-well flashplate assay. 31.2 nM of GST-ALK5, 439 nM of GST-SMAD2 and 3 mM of ATP (with 0.3 μCi of ^33P-ATP/well) were incubated in a total volume of 35 μl (20 mM of HEPES, 10 mM of MgCl2, 5 mM of MnCl2, 1 mM of DTT, 0.1% of BSA, pH 7.4) without or with test substance (5-10 concentrations) at 30° C. for 45 min. The reaction was stopped using 25 μl of 200 mM EDTA solution, filtered with suction at room temperature after 30 min, and the wells were washed with 3 times 100 μl of 0.9% NaCl solution. Radioactivity was measured in the TopCount. The IC50 values were calculated using RS 1.

[1] = system: TGF-beta-induced phosphorylation of Smad2 (Ser465/467) and Smad3 (Ser423/425) in Mv1-Lu cells; assay: Inhibition of Smad2/3 phosphorylation in Mv1Lu cells (Example 10); assay type: cell-based, mink Mustela vison; details: Neogale vison, TGF-beta 1 5 ng/ml, phospho-Smad2/3 ELISA, read-out: TβR activity (Example 10)
Experimental: This assay was used to determine the inhibitory potency of compounds on TGF-beta-induced phosphorylation of Smad2 (Ser465/467) and Smad3 (Ser423/425). Mv1-Lu cells (lung epithelial cell line from mink Mustela vison; ATCC number: CCL-64) were seeded in DMEM (Invitrogen) supplemented with 10% fetal bovine serum (Pan Biotech) at a defined cell density in 24-well or 96-well plates (24-well plate: 1.5×10^5 cells per well; 96-well plate: 4×10^4 cells per well). Cell cultures were incubated in DMEM at 37° C. and 10% CO2. On the next day, the medium was replaced and cells were serum-starved for 16-20 hours. The following day, serial dilutions of compounds were added to the wells, pre-incubated for 1.5 hrs before recombinant TGF-beta 1 ligand (final concentration 5 ng/ml; R&D systems) was added. After one hour of ligand stimulation, lysates were prepared and analyzed using an enzyme-linked immunosorbent assay kit (PathScan Phospho-Smad2 Kit, Cell Signaling Technologies). The ELISA detects phosphorylated Smad2 as well as phosphorylated Smad3 with the phospho-specific antibody. TGF-beta stimulated cells and unstimulated cells served as positive and negative controls (100% and background control). The concentration of the vehicle DMSO was kept constant at 0.2% (v/v) in all wells. Dose-response relationships were fitted using curve fitting algorithms of the RS1 statistics software package (Brooks Automation Inc. RS/1—Statistical Tools Handbook. Release 6.2) to determine the concentration at which half-maximal inhibition (IC50) of Smad2/3 phosphorylation was achieved.

Row | IC50 (GST-ALK5) [nM] | IC50 [1] [nM] | Structure (SMILES)
1 |  | < 1000 | Nc1nccc2c(-c3cc(-c4cc(F)ccc4F)nc4nccnc34)nccc12 [Compound 8, 5-[6-(2,5-Difluoro-phenyl)pyrido[2,3-b]pyrazin-8-yl]-2,6-naphthyridin-1-amine]
2 | < 1000 | < 1000 | CN1CCC(n2cc(-c3cncc(-c4cc(-c5ccccc5F)nc5nccnc45)c3)cn2)CC1 [Compound 9, 6-(2-Fluorophenyl)-8-{5-[1-(1-methyl-piperidin-4-yl)-1H-pyrazol-4-yl]-pyridin-3-yl}-pyrido[2,3-b] pyrazine]
3 | < 1000 | < 1000 | Cn1cc(-c2cncc(-c3cc(-c4ccccc4F)nc4nccnc34)c2)cn1 [Compound 10, 6-(2-Fluorophenyl)-8-[5-(1-methyl-1H-pyrazol-4-yl)-pyridin-3-yl]-pyrido[2,3-b] pyrazine]
4 | < 1000 | < 1000 | OCCn1cc(-c2cncc(-c3cc(-c4ccccc4F)nc4nccnc34)c2)cn1 [Compound 12, 2-[4-[5-[6-(2-Fluorophenyl)pyrido [2,3-b]pyrazin-8-yl]-3-pyridyl]pyrazol-1-yl]ethanol]
5 | < 1000 | < 1000 | Fc1ccc(Cl)cc1-c1cc(Nc2ccnc3ccoc23)c2nccnc2n1 [Compound 14, N-[6-(5-Chloro-2-fluorophenyl)pyrido [2,3-b]pyrazin-8-yl]furo[3,2-b]pyridin-7-amine]

Second part, the compound before the results:

Row | Structure (SMILES) | IC50 (GST-ALK5) [nM] | IC50 [1] [nM]
6 | Fc1ccccc1-c1cc(Nc2ccncc2)c2nccnc2n1 [Compound 1, [6-(2-Fluorophenyl)-pyrido[2,3-b]pyrazin-8-yl]-pyridin-4-yl-amine] | < 1000 | < 1000
7 | Fc1ccc(Cl)cc1-c1cc(Nc2ccncc2)c2nccnc2n1 [Compound 2, [6-(5-Chloro-2-fluoro-phenyl)-pyrido[2,3-b]pyrazin-8-yl]-pyridin-4-yl-amine] | < 1000 | < 1000
8 | Nc1nccc2c(-c3cc(-c4ccccc4F)nc4nccnc34)nccc12 [Compound 3, 5-[6-(2-Fluorophenyl)-pyrido[2,3-b]pyrazin-8-yl]-[2,6]naphthyridin-1-ylamine] | < 1000 | < 1000
9 | Nc1nccc2c(-c3cc(-c4ccccc4F)nc4nccnc34)cccc12 [Compound 4, 5-[6-(2-Fluorophenyl)-pyrido[2,3-b]pyrazin-8-yl]-isoquinolin-1-ylamine] | < 1000 | < 1000
10 | Nc1nccc2c(-c3cc(-c4cc(Cl)ccc4F)nc4nccnc34)nccc12 [Compound 5, 5-[6-(5-Chloro-2-fluorophenyl)-pyrido[2,3-b]pyrazin-8-yl]-[2,6]naphthyridin-1-ylamine] |  | < 1000
11 | Nc1ncc(-c2cc(-c3ccccc3F)nc3nccnc23)c2ccncc12 [Compound 6, 4-[6-(2-Fluorophenyl)-pyrido[2,3-b]pyrazin-8-yl]-[2,7]naphthyridin-1-ylamine] | < 1000 | < 1000
